In patent publication US20230049952A1, “METHODS AND COMPOUNDS FOR RESTORING MUTANT P53 FUNCTION” (PMV Pharmaceuticals, Inc., priority 2020, published 2023):

Test system: p53 signaling pathway in MT373 tumors
Test: MT373 syngeneic sarcoma model: mouse p53 signaling pathway profiling panel
Format: in vivo

Compound: CCn1c(C#CCNc2ccccc2)cc2cc(CNC3CCN(C)CC3)ccc21 [Compound 1, 1-Anilino-3-{1-ethyl-5-[(1-methyl-4-piperidylamino)methyl]-1H-indol-2-yl}-2-propyne]
- Dnmt1 fold increase or percent reduction vs vehicle control (75 mg/kg BIDx1, 48 h): 1.11 fold or %
- E2f1 fold increase or percent reduction vs vehicle control (75 mg/kg BIDx1, 48 h): 1.24 fold or %
- E2f3 fold increase or percent reduction vs vehicle control (75 mg/kg BIDx1, 48 h): 30.44 fold or %
- Egfr fold increase or percent reduction vs vehicle control (75 mg/kg BIDx1, 48 h): 34.80 fold or %
- Egr1 fold increase or percent reduction vs vehicle control (75 mg/kg BIDx1, 48 h): 39.68 fold or %
- Ep300 fold increase or percent reduction vs vehicle control (75 mg/kg BIDx1, 48 h): 1.01 fold or %
- Ercc1 fold increase or percent reduction vs vehicle control (75 mg/kg BIDx1, 48 h): 43.22 fold or %
- Esr1 fold increase or percent reduction vs vehicle control (75 mg/kg BIDx1, 48 h): 1.78 fold or %
- Fadd fold increase or percent reduction vs vehicle control (75 mg/kg BIDx1, 48 h): 1.13 fold or %
- Fas fold increase or percent reduction vs vehicle control (75 mg/kg BIDx1, 48 h): 10.67 fold or %
- Fasl fold increase or percent reduction vs vehicle control (75 mg/kg BIDx1, 48 h): 1.48 fold or %
- Foxo3 fold increase or percent reduction vs vehicle control (75 mg/kg BIDx1, 48 h): 3.18 fold or %
- Gadd45a fold increase or percent reduction vs vehicle control (75 mg/kg BIDx1, 48 h): 49.07 fold or %
- Hif1a fold increase or percent reduction vs vehicle control (75 mg/kg BIDx1, 48 h): 1.22 fold or %
- Il6 fold increase or percent reduction vs vehicle control (75 mg/kg BIDx1, 48 h): 80.18 fold or %
- Jun fold increase or percent reduction vs vehicle control (75 mg/kg BIDx1, 48 h): 29.72 fold or %
- Kras fold increase or percent reduction vs vehicle control (75 mg/kg BIDx1, 48 h): 1.01 fold or %
- Lig4 fold increase or percent reduction vs vehicle control (75 mg/kg BIDx1, 48 h): 1.05 fold or %
- Mdm2 fold increase or percent reduction vs vehicle control (75 mg/kg BIDx1, 48 h): 12.55 fold or %
- Mdm4 fold increase or percent reduction vs vehicle control (75 mg/kg BIDx1, 48 h): 19.35 fold or %
- Mel1 fold increase or percent reduction vs vehicle control (75 mg/kg BIDx1, 48 h): 31.09 fold or %
- Mlh1 fold increase or percent reduction vs vehicle control (75 mg/kg BIDx1, 48 h): 7.78 fold or %
- Msh2 fold increase or percent reduction vs vehicle control (75 mg/kg BIDx1, 48 h): 11.63 fold or %
- Myod1 fold increase or percent reduction vs vehicle control (75 mg/kg BIDx1, 48 h): 4.06 fold or %
- Nf1 fold increase or percent reduction vs vehicle control (75 mg/kg BIDx1, 48 h): 29.60 fold or %
- Nfkb1 fold increase or percent reduction vs vehicle control (75 mg/kg BIDx1, 48 h): 7.16 fold or %
- Pcna fold increase or percent reduction vs vehicle control (75 mg/kg BIDx1, 48 h): 38.45 fold or %
- Pmaip1 fold increase or percent reduction vs vehicle control (75 mg/kg BIDx1, 48 h): 1.15 fold or %
- Ppm1d fold increase or percent reduction vs vehicle control (75 mg/kg BIDx1, 48 h): 4.68 fold or %
- Prc1 fold increase or percent reduction vs vehicle control (75 mg/kg BIDx1, 48 h): 16.43 fold or %
- Prkca fold increase or percent reduction vs vehicle control (75 mg/kg BIDx1, 48 h): 13.73 fold or %
- Pten fold increase or percent reduction vs vehicle control (75 mg/kg BIDx1, 48 h): 1.01 fold or %
- Pttg1 fold increase or percent reduction vs vehicle control (75 mg/kg BIDx1, 48 h): 1.08 fold or %
- Rb1 fold increase or percent reduction vs vehicle control (75 mg/kg BIDx1, 48 h): 2.55 fold or %
- Rela fold increase or percent reduction vs vehicle control (75 mg/kg BIDx1, 48 h): 1.07 fold or %
- Rprm fold increase or percent reduction vs vehicle control (75 mg/kg BIDx1, 48 h): 2.09 fold or %
- Serpinb5 fold increase or percent reduction vs vehicle control (75 mg/kg BIDx1, 48 h): 1.90 fold or %
- Sesn2 fold increase or percent reduction vs vehicle control (75 mg/kg BIDx1, 48 h): 1.57 fold or %
- Sfn fold increase or percent reduction vs vehicle control (75 mg/kg BIDx1, 48 h): 1.00 fold or %
- Sirt1 fold increase or percent reduction vs vehicle control (75 mg/kg BIDx1, 48 h): 1.01 fold or %
- Stat1 fold increase or percent reduction vs vehicle control (75 mg/kg BIDx1, 48 h): 1.73 fold or %
- Tnf fold increase or percent reduction vs vehicle control (75 mg/kg BIDx1, 48 h): 1.36 fold or %
- Traf1 fold increase or percent reduction vs vehicle control (75 mg/kg BIDx1, 48 h): 1.38 fold or %
- Trp53bp2 fold increase or percent reduction vs vehicle control (75 mg/kg BIDx1, 48 h): 1.06 fold or %
- Trp53 fold increase or percent reduction vs vehicle control (75 mg/kg BIDx1, 48 h): 1.16 fold or %
- Apex1 fold increase or percent reduction vs vehicle control (75 mg/kg BIDx1, 72 h): 24.49 fold or %
- Atm fold increase or percent reduction vs vehicle control (75 mg/kg BIDx1, 72 h): 12.27 fold or %
- Atr fold increase or percent reduction vs vehicle control (75 mg/kg BIDx1, 72 h): 1.01 fold or %
- Bag1 fold increase or percent reduction vs vehicle control (75 mg/kg BIDx1, 72 h): 25.72 fold or %
- Bax fold increase or percent reduction vs vehicle control (75 mg/kg BIDx1, 72 h): 20.93 fold or %
- Bbc3 fold increase or percent reduction vs vehicle control (75 mg/kg BIDx1, 72 h): 1.08 fold or %
- Bcl2 fold increase or percent reduction vs vehicle control (75 mg/kg BIDx1, 72 h): 2.76 fold or %
- Bid fold increase or percent reduction vs vehicle control (75 mg/kg BIDx1, 72 h): 1.12 fold or %
- Birc5 fold increase or percent reduction vs vehicle control (75 mg/kg BIDx1, 72 h): 12.81 fold or %
- Brca1 fold increase or percent reduction vs vehicle control (75 mg/kg BIDx1, 72 h): 10.57 fold or %
- Brca2 fold increase or percent reduction vs vehicle control (75 mg/kg BIDx1, 72 h): 12.51 fold or %
- Btg2 fold increase or percent reduction vs vehicle control (75 mg/kg BIDx1, 72 h): 16.69 fold or %
- Casp2 fold increase or percent reduction vs vehicle control (75 mg/kg BIDx1, 72 h): 5.88 fold or %
- Ccnb1 fold increase or percent reduction vs vehicle control (75 mg/kg BIDx1, 72 h): 10.10 fold or %
- Ccne1 fold increase or percent reduction vs vehicle control (75 mg/kg BIDx1, 72 h): 1.09 fold or %
- Ccng1 fold increase or percent reduction vs vehicle control (75 mg/kg BIDx1, 72 h): 9.69 fold or %
- Ccnh fold increase or percent reduction vs vehicle control (75 mg/kg BIDx1, 72 h): 11.39 fold or %
- Cdc25a fold increase or percent reduction vs vehicle control (75 mg/kg BIDx1, 72 h): 7.34 fold or %
- Cdk1 fold increase or percent reduction vs vehicle control (75 mg/kg BIDx1, 72 h): 23.09 fold or %
- Cdk4 fold increase or percent reduction vs vehicle control (75 mg/kg BIDx1, 72 h): 22.60 fold or %
- Cdkn1a fold increase or percent reduction vs vehicle control (75 mg/kg BIDx1, 72 h): 1.42 fold or %
- Cdkn2a fold increase or percent reduction vs vehicle control (75 mg/kg BIDx1, 72 h): 39.53 fold or %
- Chek1 fold increase or percent reduction vs vehicle control (75 mg/kg BIDx1, 72 h): 20.93 fold or %
- Cradd fold increase or percent reduction vs vehicle control (75 mg/kg BIDx1, 72 h): 31.95 fold or %
- Cul9 fold increase or percent reduction vs vehicle control (75 mg/kg BIDx1, 72 h): 1.28 fold or %
- Dapk1 fold increase or percent reduction vs vehicle control (75 mg/kg BIDx1, 72 h): 1.11 fold or %
- Dnmt1 fold increase or percent reduction vs vehicle control (75 mg/kg BIDx1, 72 h): 1.02 fold or %
- E2f1 fold increase or percent reduction vs vehicle control (75 mg/kg BIDx1, 72 h): 1.14 fold or %
- E2f3 fold increase or percent reduction vs vehicle control (75 mg/kg BIDx1, 72 h): 15.87 fold or %
- Egfr fold increase or percent reduction vs vehicle control (75 mg/kg BIDx1, 72 h): 24.18 fold or %
- Egr1 fold increase or percent reduction vs vehicle control (75 mg/kg BIDx1, 72 h): 40.49 fold or %
- Ep300 fold increase or percent reduction vs vehicle control (75 mg/kg BIDx1, 72 h): 9.15 fold or %
- Ercc1 fold increase or percent reduction vs vehicle control (75 mg/kg BIDx1, 72 h): 29.53 fold or %
- Esr1 fold increase or percent reduction vs vehicle control (75 mg/kg BIDx1, 72 h): 1.39 fold or %
- Fadd fold increase or percent reduction vs vehicle control (75 mg/kg BIDx1, 72 h): 1.43 fold or %
- Fas fold increase or percent reduction vs vehicle control (75 mg/kg BIDx1, 72 h): 12.05 fold or %
- Fasl fold increase or percent reduction vs vehicle control (75 mg/kg BIDx1, 72 h): 1.42 fold or %
- Foxo3 fold increase or percent reduction vs vehicle control (75 mg/kg BIDx1, 72 h): 14.18 fold or %
- Gadd45a fold increase or percent reduction vs vehicle control (75 mg/kg BIDx1, 72 h): 25.11 fold or %
